Results as given in patent publication US8759549B2, “Compound extracted from Antrodia cinnamomea and pharmaceutical composition comprising the same” (priority 2010, dated 2014).
Like-named read-outs stand apart in the source and are kept apart here.

Key:
[1] = test system: HT29 human colorectal cancer cell line; test: In vitro anti-cancer activity, HT29 human colorectal cancer cells; format: cell-based; conditions: HT-29
Description: (§1) The anti-cancer effect compound of formula (2) and compounds (3) and (4) were evaluated using the HT29 and Colo205 human colorectal cancer cell lines.
(§2) Human colorectal cancer cells HT29 and Colo205 were plated in a 96-well plate, at a concentration of 1×10^4-5 cells/well. The human colorectal cancer cells were incubated at 37° C. with 5% CO2 overnight. These cancer cells were washed three times with a serum free medium or a phosphate buffer solution (PBS) the next day. The compound of Formula (2) and Compounds (3) and (4) were added to the HT29 and Colo205 human colorectal cancer cells respectively. The experiment was performed three times and the average IC50 value was calculated.

[2] = test system: Colo205 human colorectal cancer cell line; test: In vitro anti-cancer activity, Colo205 human colorectal cancer cells; format: cell-based; conditions: COLO 205
Description: as §1, §2

[3] = HT29 human colorectal cancer cells, average of three experiments, FIG. 6, read-out: IC50
[4] = Colo205 human colorectal cancer cells, average of three experiments, FIG. 7, read-out: IC50

IC50 [1, 3] [µM] | IC50 [2, 4] [µM] | SMILES | IC50 ([1]; Homo sapiens) [µM] | IC50 ([2]; Homo sapiens) [µM]
> 100 | > 100 | COc1cc(C)c(OC)c2c1OCO2 [Compound (4)] | – | –
– | – | C=C(C)C#Cc1c(C)c(OC)c(OC)c(OC)c1OC [compound (3)] | 59 | 42
66 | 9 | C=C(C)C#Cc1c(C)c(OC)c2c(c1OC)OCO2 [formula (2), 1,2-methylenedioxy-3,6-bismethoxy-4-(3-methyl-3-alkene-1-butyne)-5-methylbenzene] | – | –
